Experimental data published in PubChem BioAssay AID2060507 (Molecular Pharmacology Branch, DTP, NCI, 2025).
Where “and” joins values, the source holds several entries; their conditions need not be identical. Equal entries are not always repeated.

Test system: 519858-162-T-J1-PDC complex spheroid viability
Assay: Anticancer human tumor 519858-162-T-J1-PDC patient-derived colon adenocarcinoma cell line growth inhibition [GQUAD]
Conditions: for viability, T/C: stronger effect = lower value
From the text: DNA G-quadruplex Stabilizer Agents in Combinations in Complex Spheroids
A high-throughput screen of multi-cell type tumor spheroids was designed to identify active combinations of DNA G-quadruplex stabilizer agents and targeted small molecules. Complex spheroids include a stromal component modeled by human endothelial cells (HUVEC) and fibroblasts modeled by human mesenchymal stem cells (MSCs). The concentration ranges selected for each drug and investigational agent were based upon clinically achievable concentrations if the clinical Cmax of the agent was known.
Compounds. The drugs and investigational agents: pidnarulex (CX-5461; NSC782164), APTO-253 (NSC789042), BRACO-19 (NSC847499), peposertib (NSC802822), ceralasertib (NSC780249), elimusertib (NSC800525), camonsertib (NSC841442), AZD-1390 (NSC803789), olaparib (NSC753686), talazoparib (NSC767125), ART-558 (NSC835418), sotorasib (NSC818433), MRTX-1133 (NSC836407), SN-38 (NSC673596), topotecan (NSC609699), etoposide (NSC141540), doxorubicin (NSC123127), gemcitabine (NSC613327), 5-fluorouracil (NSC19893), paclitaxel (NSC125973), vemurafenib (NSC761431), panobinostat (NSC761190), R-306465 (JNJ-16241199; NSC773264), adavosertib (NSC754352), TP-3654 (NSC805149), carboplatin (NSC241240), KSQ-4279 (NSC840948), and staurosporine (NSC755774) were obtained from the National Cancer Institute (NCI) Developmental Therapeutics Program Chemical Repository (34). The FDA-approved anticancer drug set is available from the NCI Developmental Therapeutics Program. […] The stock solutions were prepared in dimethyl sulfoxide (DMSO, Sigma-Aldrich, St. Louis, MO, cat. D2650) at 800-fold the tested concentration and stored at -70 degrees C prior to their use. All drugs and investigational agents were tested over a range starting from a high concentration at or near the clinical Cmax and decreasing in half-log increments. If the clinical Cmax for an agent had not been determined, the highest concentration tested was 10 microM.
2.3 Cell Culture. All cells were maintained in an incubator at 37 degrees C and 5% CO2 with 95% humidity. The PDC lines were cultured according to standard operating procedures established by the NCI PDMR. All PDCs were thawed and cultured in Matrigel-coated flasks prepared with a working solution of 1X Ham's F-12 nutrient mix, without supplementation (Invitrogen, cat. 11765054), 100 U/mL penicillin-streptomycin (Invitrogen, cat. 15140122), and 2.5% Matrigel (Corning Inc., cat. 354248) for the first three passages. The 857933-349-R-J2-PDC line was cultured in 6C/Colon 1B media, which includes advanced DMEM/F-12 (Thermo Fisher Scientific, cat. 12634028), 10 mM HEPES (Thermo Fisher Scientific, cat. 15630080), 1X GlutaMAX supplement (Thermo Fisher Scientific, cat. 35050061), 0.1 mg/mL primocin (InvivoGen, cat. ant-pm-2), 10% defined fetal bovine serum, heat inactivated (HyClone Laboratories Inc., cat. SH30070.03HI), 50% L-WRN conditioned media (ATCC, cat. CRL-3276), 1.25 mM N-Acetyl-L-cysteine (Sigma-Aldrich, cat. A9165), 10 mM nicotinamide (Sigma-Aldrich, cat. N0636), 1X B-27 supplement (Thermo Fisher Scientific, cat. 17504044), 1X N-2 supplement (Thermo Fisher Scientific, cat. 17502048), 10 microM Y-27632 dihydrochloride (Tocris Bioscience, cat. 1254), and 50 ng/mL human EGF recombinant protein (Thermo Fisher Scientific, cat. PHG0311). The 485176-168-R4-J1-PDC line was cultured in Panc media, which includes all 6C/Colon 1B media components plus 100 ng/mL human FGF-10 (Thermo Fisher Scientific, cat. 100-26), 500 nM SB-431542 (Selleckchem, cat. S1067), and gastrin (Tocris, cat. 3006).
[…]

[1] = compound alone, run of 02/26/2024
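Also: spheroids exposed to compounds for 7 days.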
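For viability, T/C in this document: 100% = DMSO vehicle control viability.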

Row | SMILES | viability, T/C (compound 0.0316 µM) | viability, T/C (compound 0.1 µM) | viability, T/C (compound 0.316 µM) | viability, T/C (compound 1 µM) | viability, T/C (compound 3.16 µM) | viability, T/C (compound 10 µM) | IC50 (curve of compound) | viability, T/C (compound 0.000999 µM) | viability, T/C (compound 0.00316 µM) | viability, T/C (compound 0.00999 µM) | viability, T/C (compound 0.0999 µM) | IC50 [1] [µM] | IC50 (compound alone, run of 02/20/2024)
1 | C#Cc1c(F)ccc2cc(O)cc(-c3ncc4c(N5CC6CCC(C5)N6)nc(OCC56CCCN5CC(F)C6)nc4c3F)c12 (stereo not given) | 93.8% and 103% and 90.4% | 101% and 86% and 69.8% | 110% and 97.8% and 105% | 83.9% and 94.1% and 98.5% | 88.3% and 93.2% and 89% | 86.6% and 71.6% and 81.2% | > 10 µM | – | – | – | – | – | –
2 | C=CC(=O)N1CCN(c2nc(=O)n(-c3c(C)ccnc3C(C)C)c3nc(-c4c(O)cccc4F)c(F)cc23)C(C)C1 (stereo not given) | 75% and 84.1% and 70.8% | 84.2% and 85.5% and 98.3% | 89% and 80.9% and 104% | 103% and 77.7% and 99% | 104% and 70.7% and 95.2% | 71.5% and 91% and 74.5% | > 10 µM | – | – | – | – | – | –
3 | C=CCn1c(=O)c2cnc(Nc3ccc(N4CCN(C)CC4)cc3)nc2n1-c1cccc(C(C)(C)O)n1 | 83% and 81.4% | 107% and 106% | 126% and 105% | 104% and 95.3% | 83.3% and 94.8% | 92.4% and 92.1% | > 10 µM | – | – | – | – | – | –
4 | CC(=O)O[C@H]1C(=O)[C@@]2(C)[C@H]([C@H](OC(=O)c3ccccc3)[C@]3(O)C[C@H](OC(=O)[C@H](O)[C@@H](NC(=O)c4ccccc4)c4ccccc4)C(C)=C1C3(C)C)[C@]1(OC(C)=O)CO[C@@H]1C[C@@H]2O | 83.9% and 107% and 108% | 113% and 101% and 80.3% | 93.4% and 80.2% and 97.1% | 87% and 83.3% and 85.1% | 89% and 82.4% and 95.4% | 101% (2×) and 86.7% | > 10 µM | – | – | – | – | – | –
5 | CC(C)(O)C1CCC(Nc2ccc3ncc(-c4cccc(C(F)(F)F)c4)n3n2)CC1 (stereo not given) | 79% | 119% and 115% | 104% and 106% | 80.3% and 73% | 34.5% and 13.3% | 48.6% and 45.4% | 2.46 µM and 1.84 µM | – | – | – | – | – | –
6 | CC(C)n1c(=O)n(C)c2cnc3cc(F)c(-c4ccc(OCCCN5CCCCC5)nc4)cc3c21 | 123% and 93.8% | 107% and 102% | 86.9% and 69.8% | 108% and 91.8% | 73.7% and 81.7% | 120% and 93.2% | > 10 µM | – | – | – | – | – | –
7 | CC1COCCN1c1cc(-c2ccnn2C)c2ccnc(-c3ccn[nH]3)c2n1 (stereo not given) | 103% and 94% | 93.7% and 82.9% | 96.7% and 65% | 117% and 98.3% | 58.8% and 39.7% | 34.3% and 26.3% | 4.78 µM and 2.43 µM | – | – | – | – | – | –
8 | CC1COCCN1c1cc(C2(O)CC3CCC(C2)O3)c2cnn(-c3ccn[nH]3)c2n1 (stereo not given) | 109% and 94.9% | 107% and 101% | 89.3% and 63% | 70.9% and 74% | 93.6% and 47.8% | 66.3% and 38% | > 10 µM and 3.34 µM | – | – | – | – | – | –
9 | CC1COCCN1c1cc(C2(S(C)(=N)=O)CC2)nc(-c2ccnc3[nH]ccc23)n1 (stereo not given) | 118% and 109% and 93.2% | 80.8% and 90.4% and 89.4% | 80.8% and 111% and 79% | 115% and 98.5% and 105% | 51.5% and 98.4% and 90.3% | 61.3% and 105% and 86.2% | > 10 µM | – | – | – | – | – | –
10 | CCCS(=O)(=O)Nc1ccc(F)c(C(=O)c2c[nH]c3ncc(-c4ccc(Cl)cc4)cc23)c1F | 88.3% | 112% | 114% | 97.1% | 125% | 103% | > 10 µM | – | – | – | – | – | –
11 | CC[C@@]1(O)C(=O)OCc2c1cc1n(c2=O)Cc2cc3c(CN(C)C)c(O)ccc3nc2-1 | 141% and 107% | – | 75.1% and 69.3% | – | – | – | > 0.316 µM | 86.1% and 63.7% | 69.6% and 123% | 93.4% and 97% | 90.9% and 92.7% | – | –
12 | CCc1c2c(nc3ccc(O)cc13)-c1cc3c(c(=O)n1C2)COC(=O)[C@]3(O)CC | 68.9% and 65.7% | – | 64.6% and 78.9% | – | – | – | > 0.316 µM | 95% and 84% | 74.7% and 67.6% | 43.7% and 57.5% | 89.6% and 60.6% | – | –
13 | CN(C)c1ccc(Nc2c3ccc(NC(=O)CCN4CCCC4)cc3nc3cc(NC(=O)CCN4CCCC4)ccc23)cc1 | 85.1% [middle of 7 runs] | – | – | – | – | 67.7% [middle of 7 runs] | – | – | – | – | – | > 10 | –
14 | COc1cc(C2c3cc4c(cc3C(OC3OC5COC(C)OC5C(O)C3O)C3COC(=O)C23)OCO4)cc(OC)c1O (stereo not given) | 165% and 107% and 86% | 90.6% and 89.7% and 81.6% | 82.8% and 98% and 61.3% | 123% and 112% and 70.1% | 75% and 96.2% and 89.7% | 80.6% and 72.3% and 83.6% | > 10 µM | – | – | – | – | – | –
15 | COc1ccc([C@@H](O)c2cc(-c3ncnc4cc(N5CCOCC5)ccc34)c(F)cc2Cl)nn1 | 103% and 120% and 90.1% | 49.1% and 113% and 99.8% | 76% and 95.2% and 69% | 94% and 100% and 121% | 82.1% and 102% and 73.5% | 66.8% and 87.3% and 67.6% | > 10 µM | – | – | – | – | – | –
16 | COc1cccc2c1C(=O)c1c(O)c3c(c(O)c1C2=O)CC(O)(C(=O)CO)CC3OC1CC(N)C(O)C(C)O1 (stereo not given) | 72.4% and 79.2% and 88.8% | 87.7% and 101% and 80.3% | 96.6% and 91.6% and 71.9% | 104% and 73.1% and 83.7% | 68.2% and 95.1% and 53.9% | 82.8% and 70.4% and 46.2% | > 10 µM and 5.66 µM | – | – | – | – | – | –
17 | COc1ncnc(C2CC2)c1-c1ncc2cnn(Cc3ccc(-c4nc(C(F)(F)F)cn4C(C)C)cc3)c2n1 | 104% and 85.1% | 111% and 83.2% | 101% and 92.7% | 119% and 75.2% | 95.7% and 89.8% | 83.2% and 81.7% | > 10 µM | – | – | – | – | – | –
18 | Cc1[nH]c2ccc(F)cc2c1-c1nc2c3cccnc3c3ncccc3c2[nH]1 | – | 87.9% [middle of 9 runs] | 92.2% [middle of 9 runs] | – | – | – | – | – | – | – | – | > 10 | 8.82 µM and > 10 µM and 9.27 µM
19 | Cc1[nH]c2ccccc2c1CCNCc1ccc(/C=C/C(=O)NO)cc1 | 107% | – | 50.6% | – | – | – | > 0.316 µM | 94.4% | 108% | 74.3% | 75.5% | – | –
20 | Cc1cccc(N(C)C(=O)C2C(O)CCN2c2nc(C)cc(C(F)(F)F)c2C#N)c1 (stereo not given) | 110% and 112% | 88.1% and 75.7% | 95.8% and 74.5% | 111% and 116% | 106% and 101% | 93.9% and 80.4% | > 10 µM | – | – | – | – | – | –
21 | Cc1cnc(CNC(=O)c2c(=O)c3ccc(N4CCCN(C)CC4)nc3n3c2sc2ccccc23)cn1 | – | – | – | 69.1% [middle of 10 runs] | – | 52.6% [middle of 10 runs] | – | – | – | – | – | – | –
22 | Cn1ncnc1[C@H]1c2n[nH]c(=O)c3cc(F)cc(c23)N[C@@H]1c1ccc(F)cc1 | 92.4% and 96.9% | – | 116% and 59.9% | – | – | – | > 0.316 µM | 83.7% and 86.3% | 82.9% and 98.9% | 105% and 58.1% | 119% and 84.3% | – | –
23 | Nc1ccn(C2OC(CO)C(O)C2(F)F)c(=O)n1 (stereo not given) | 78.1% | 91.4% | 92.2% | 94.6% | 96.3% | 79% | > 10 µM | – | – | – | – | – | –
24 | O=C(NO)c1cnc(N2CCN(S(=O)(=O)c3ccc4ccccc4c3)CC2)nc1 | 97.8% and 112% | 76.5% and 58.8% | 25.8% and 37.5% | 9.47% and 14.6% | 0.68% and 0.35% | 0.51% and 0.58% | 0.184 µM and 0.162 µM | – | – | – | – | – | –
25 | O=C(c1cc(Cc2n[nH]c(=O)c3ccccc23)ccc1F)N1CCN(C(=O)C2CC2)CC1 | 86.5% and 87.2% | 88.4% and 82.1% | 115% and 95.4% | 102% and 79.3% | 86.3% and 93% | 103% and 69.9% | > 10 µM | – | – | – | – | – | –
26 | O=c1[nH]cc(F)c(=O)[nH]1 | 91.9% | 115% | 95.7% | 107% | 77% | 80.2% | > 10 µM | – | – | – | – | – | –
